Test results published in patent US12544373B2, “Treatment of cancer, inflammatory diseases and autoimmune diseases” (Usher III Initiative, Inc., priority 2020, dated 2026).
“And” between values parts separate entries of the source, which are not always exact repeats. Equal values may be shown once. Read-outs that look alike come from different tables or passages of the source.

Key:
CNXF 498 = assay: CellTiter-Blue 2D monolayer assay (Example 1), glioblastoma; type: cell-based, human; details: for Test/Control (%): 72 h
Description: (§1) Compound 85 was assessed in 10 human tumor cell lines (see Table 3) for anti-cancer activity in vitro using a CellTiter-Blue® based 2D monolayer assay.
(§2) CellTiter-Blue® Cell Viability Assay: Tumor cells were grown at 37° C. in a humidified atmosphere with 5% CO2 in RPMI medium, supplemented with 10% (v/v) fetal calf serum and 50 μg/ml gentamicin (140 μl/well). Cultures were incubated at 37° C. and 5% CO2 in a humidified atmosphere. After 24 hours, 10 μl of Compound 85 was added, and left on the cells for another 72 hours (incubation period). Compound 85 was tested at 5 concentrations (0.003 μM, 0.03 μM, 0.3 μM, 3 μM, and 30 μM) and serially diluted in DMSO, mixed with cell culture medium, and added to the assay plates by using a Tecan Freedom EVO 200 robotic platform. The DMSO concentration was kept constant at 0.3% yip across the assay plate. Every 96 well plate included six DMSO-treated control wells and Compound 85-treated wells in duplicate at 5 concentrations. Viability of cells was quantified using the CellTiter-Blue® cell viability assay (Promega G8081). After incubation of cells, the CellTiter-Blue® reagent was brought to ambient temperature. Next, 20 μl of CellTiter-Blue® reagent were added to each well. After incubation tier up to 4 hours, fluorescence (FU) was measured using the EnSpire® multimode plate reader (Perkin Elmer) ([…]).
(§3) Data Evaluation: Sigmoidal concentration-response curves were fitted to the data points (test-versus-control; T/C values) obtained for each tumor model using 4 parameter non-linear curve fit (Charles River DRS Datawarehouse Software). Drug effects are expressed in terms of the percentage of the fluorescence signal, obtained by comparison of the mean signal in the treated wells with the mean signal of the untreated controls (T/C-value [%]) (Table 4). IC50 and IC70 values were reported as relative and absolute IC50 and IC70 values (Table 5). The absolute IC50 and IC70 values reflect the concentration of Compound 85 that achieves T/C=50% and T/C=30%, respectively. The relative IC50 value is the concentration of Compound 85 that gives a response half way between the top and bottom plateau of the sigmoidal concentration-response curve (inflection point of the curve).

CNXF U-87 MG = assay: as above; type: cell-based, human; details: for Test/Control (%): 72 h
Description: as §1, §2, §3

SXFS Hs 729 = assay: CellTiter-Blue Cell Viability Assay (Example 2), soft tissue sarcoma; type: cell-based, human; details: for T/C %: 72 h
Excerpt: (§4) The CellTiter-Blue® Cell Viability Assay was used to assess the viability of cells from various cancer cell lines, in the presence or absence of Compound 85 (at different concentrations). This assay provides a homogeneous, fluorometric method for estimating the number of viable cells present in multi-well plates. Viable cells retain the ability to reduce resazurin to resorufin, which is highly fluorescent. […] The fluorescence produced is proportional to the number of viable cells. There is a linear relationship between cell number and fluorescence.
(§5) Cancer cells (see Table 6) were harvested from exponential phase cultures, counted and plated in 96 well flat-bottom microtiter plates, at a cell density 6,000-20,000 cells/well, depending on the cell line's growth rate. The culture medium was supplemented with 10% (v/v) foetal calf serum and 50 μg/mL gentamicin (140 μL/well). Cultures were incubated at 37° C. and 5% CO2 in a humidified atmosphere.
(§6) Compound 85 was serially diluted in DMSO, and five Compound 85 concentrations in half-log increments were used: 0.03 μM, 0.09 μM, 0.30 μM, 1.0 μM, and 3.0 μM. After 24 h, 10 μL of Compound 85 (dissolved in DMSO) or control (DMSO) medium were added, in duplicates, and left on the cells for another 72 h. Compound 85 solutions were added to the assay plates using a Tecan Freedom EVO 200 robotic platform. The DMSO concentration was kept constant at 0.3% v/v across the assay plate.
(§7) After incubation of up to 72 hours, fluorescence (FU) was measured using the EnSpire® multimode plate reader (Perkin Elmer) (excitation λ=570 nm, emission λ=600 nm).
(§8) Cancer cell lines used: Compound 85's anti-cancer effect was tested in 20 human cancer-cell lines representing nine cancer types (Table 6).
(§9) The percentage of viable cells in the presence of Compound 85 (Test condition, T), at different concentrations, are presented in Table 7 and expressed as a percentage of the number of viable cells in the presence of DMSO without Compound 85 (Control condition, C).
(§10) The relative IC50 is determined as the Compound 85 concentration giving a response halfway between the maximum cell viability signal (i.e., a 100% cell viability, no Compound 85 response) and the minimal viability signal (i.e. maximum cell viability inhibition achieved by Compound 85), in a sigmoidal concentration-effect curve.
(§11) The absolute IC50 is determined as the concentration that is associated with a T/C ratio of 50%.

SXFO 678 = assay: CellTiter-Blue Cell Viability Assay (Example 2), osteosarcoma; type: cell-based, human; details: for T/C %: 72 h
Excerpt: as §4, §5, §6, §7, §8, §9, §10, §11

SXFO Saos-2 = assay: as above; type: cell-based, human; details: for T/C %: 72 h
Excerpt: as §4, §5, §6, §7, §8, §9, §10, §11

[1] = system: 20 human cancer-cell lines representing nine cancer types; assay: CellTiter-Blue Cell Viability Assay (Example 2), whole panel; type: cell-based
Excerpt: as §4, §5, §6, §7, §8, §9, §10, §11

[2] = geometric mean over human cancer cell lines of Table 8

CC(C)(O)Cn1nc(-c2ccccc2)c2c(Cl)c(-c3ccccc3)nnc21 [Compound 85] was tested, and the “Rel. IC70” value (CNXF 498) was 1868 nM, the “Test/Control (%)” value (CNXF 498; 0.003 μM) was 106% and the “Test/Control (%)” value (CNXF 498; 0.03 μM) was 107%. The “Test/Control (%)” value (CNXF 498; 0.3 μM) was 113%, the “Test/Control (%)” value (CNXF 498; 3 μM) was 2% and the “Test/Control (%)” value (CNXF 498; 30 μM) was 1%. The “Abs. IC70” value (CNXF 498; T/C=30%) was 1901 nM, the IC50 (CNXF 498; T/C=50%, read-out: Abs. IC50) was 1740 nM and the “Bot. (%)” value (CNXF 498; bottom plateau of curve) was 1%. For the same compound, the IC50 (CNXF 498; read-out: Rel. IC50) was 1710 nM, the “Top (%)” value (CNXF 498; top plateau of curve) was 109% and the “Rel. IC70” value (CNXF U-87 MG) was 987 nM. The “Test/Control (%)” value (CNXF U-87 MG; 0.003 μM) was 99%, the “Test/Control (%)” value (CNXF U-87 MG; 0.03 μM) was 102% and the “Test/Control (%)” value (CNXF U-87 MG; 0.3 μM) was 102%. The “Test/Control (%)” value (CNXF U-87 MG; 3 μM) was 1%, the “Test/Control (%)” value (CNXF U-87 MG; 30 μM) was 4% and the “Abs. IC70” value (CNXF U-87 MG; T/C=30%) was 994 nM. The IC50 (CNXF U-87 MG; T/C=50%, read-out: Abs. IC50) was 940 nM, the “Bot. (%)” value (CNXF U-87 MG; bottom plateau of curve) was 3% and the IC50 (CNXF U-87 MG; read-out: Rel. IC50) was 935 nM. The “Top (%)” value (CNXF U-87 MG; top plateau of curve) was 101%, the “Absolute IC70” value (SXFS Hs 729) was 808 nM and the “Relative IC70” value (SXFS Hs 729) was 789 nM. It also gave a T/C % (SXFS Hs 729; 0.03 μM) of 99%, a T/C % (SXFS Hs 729; 0.095 μM) of 99% and a T/C % (SXFS Hs 729; 0.3 μM) of 99%. It also gave a T/C % (SXFS Hs 729; 0.95 μM) of 13%, a T/C % (SXFS Hs 729; 3.0 μM) of 7% and an IC50 (SXFS Hs 729; read-out: Absolute IC50) of 733 nM. For the same compound, the IC50 (SXFS Hs 729; read-out: Relative IC50) was 724 nM, the “Absolute IC70” value (SXFO 678) was 532 nM and the “Relative IC70” value (SXFO 678) was 531 nM. For the same compound, the T/C % (SXFO 678; 0.03 μM) was 101%, the T/C % (SXFO 678; 0.095 μM) was 97% and the T/C % (SXFO 678; 0.3 μM) was 91%. For the same compound, the T/C % (SXFO 678; 0.95 μM) was 2%, the T/C % (SXFO 678; 3.0 μM) was 1% and the IC50 (SXFO 678; read-out: Absolute IC50) was 458 nM. For the same compound, the IC50 (SXFO 678; read-out: Relative IC50) was 458 nM, the “Absolute IC70” value (SXFO Saos-2) was 747 nM and the “Relative IC70” value (SXFO Saos-2) was 750 nM. It also gave a T/C % (SXFO Saos-2; 0.03 μM) of 97%, a T/C % (SXFO Saos-2; 0.095 μM) of 93% and a T/C % (SXFO Saos-2; 0.3 μM) of 99%. For the same compound, the T/C % (SXFO Saos-2; 0.95 μM) was 1%, the T/C % (SXFO Saos-2; 3.0 μM) was 0% and the IC50 (SXFO Saos-2; read-out: Absolute IC50) was 709 nM. For the same compound, the IC50 (SXFO Saos-2; read-out: Relative IC50) was 712 nM, the “anti-cancer activity, concentration dependence” value ([1]; all of the 20 human cancer cell lines tested) was “concentration dependent anti-cancer activity” and the anti-cancer activity ([1]; at concentration of 0.95 μM, 20 human cancer-cell lines, nine cancer types) was “significant anti-cancer activity”. For the same compound, the “geometric mean absolute IC70” value [1, 2] was 712 nM, the “geometric mean relative IC70” value [1, 2] was 675 nM and the IC50 ([1]; geometric mean over human cancer cell lines of Table 8, read-out: geometric mean absolute IC50) was 596 nM and 600 nM. The IC50 ([1]; geometric mean over human cancer cell lines of Table 8, read-out: geometric mean relative IC50) was 583 nM.
